Where a name gives a salt, the structure may show the parent alone. Read-outs that look alike come from different tables or passages of the source.
What was measured:
[1] = system: HCT-116 (ATCC #CCL-247) (colorectal); conditions: HCT-116 (COLON); NCI GI50 values; read-out: GI50 (drug concentration that produces 50% cell growth inhibition); cited from earlier work
[2] = system: NCI-H460 (ATCC #HTB-177) (non-small cell lung); conditions: H460 (NSCLC); NCI GI50 values; read-out: GI50 (drug concentration that produces 50% cell growth inhibition); cited from earlier work
[3] = system: SKOV-3 (ATCC #HTB-77) (ovarian); conditions: SKOV-3 (OVARIAN); NCI GI50 values; read-out: GI50 (drug concentration that produces 50% cell growth inhibition); cited from earlier work
[4] = Solubility comparison in various solvents
Description: Compounds were dissolved in each solvent under constant stirring and temperature.

[5] = system: HCT-15 (ATCC #CCL-225) (colorectal); conditions: HCT-15 (COLON); NCI GI50 values; read-out: GI50 (drug concentration that produces 50% cell growth inhibition); cited from earlier work
[6] = system: HCT-116 (ATCC #CCL-247) (colorectal); type: cell-based; conditions: for GI50: read-out: GI50 (drug concentration that produces 50% cell growth inhibition); for GI50 (drug concentration that produces 50% cell growth inhibition): result in words
[7] = system: NCI-H460 (ATCC #HTB-177) (non-small cell lung); type: cell-based; conditions: for GI50: read-out: GI50 (drug concentration that produces 50% cell growth inhibition); for GI50 (drug concentration that produces 50% cell growth inhibition): result in words
[8] = system: HCT-15 (ATCC #CCL-225) (colorectal); type: cell-based; conditions: for GI50: read-out: GI50 (drug concentration that produces 50% cell growth inhibition); for GI50 (drug concentration that produces 50% cell growth inhibition): result in words
[9] = system: SKOV-3 (ATCC #HTB-77) (ovarian); type: cell-based; conditions: for GI50: read-out: GI50 (drug concentration that produces 50% cell growth inhibition); for GI50 (drug concentration that produces 50% cell growth inhibition): result in words

SMILES	GI50 [1] [nM]	GI50 [2] [nM]	GI50 [3] [nM]	GI50 ([6]; HCT-116 (COLON), 48 hours) [nM]	GI50 ([7]; H460 (NSCLC), 48 hours) [nM]	GI50 ([8]; HCT-15 (COLON), 48 hours) [nM]	GI50 (drug concentration that produces 50% cell growth inhibition) ([9]; SKOV-3 (OVARIAN), 48 hours)	further results
CC[C@@]1(O)C(=O)OCc2c1cc1n(c2=O)Cc2cc3ccccc3nc2-1 [Camptothecin, camptothecin]	40	16	25	–	–	–	–	Solubility ([4]; Acetonitrile, r.t.): 0.09 mg/g; Solubility ([4]; Soybean Oil USP, r.t.): 0.00 mg/g; GI50 [5]: 160 nM
CCc1c2c(nc3ccc(OC(=O)CC4(CC(=O)O[C@H]5CC[C@@]6(C)C(=CC[C@H]7[C@@H]8CC[C@H]([C@H](C)CCCC(C)C)[C@@]8(C)CC[C@@H]76)C5)CCCC4)cc13)-c1cc3c(c(=O)n1C2)COC(=O)[C@]3(O)CC [Cholesterol 3,3-tetramethylene glutaric-10-(7-ethyl-10-hydroxycamptothecin)]	–	–	–	2000	871	12600	–	GI50 ([9]; SKOV-3 (OVARIAN), 48 hours): 295 nM
CC[C@@]1(OC(=O)O[C@H]2CC[C@@]3(C)C(=CC[C@H]4[C@@H]5CC[C@H]([C@H](C)CCCC(C)C)[C@@]5(C)CC[C@@H]43)C2)C(=O)OCc2c1cc1n(c2=O)Cc2cc3ccccc3nc2-1 [Cholesterol formate-20-CPT, Cholesterol Formate-20-camptothecin]	–	–	–	–	–	–	poor	GI50 (drug concentration that produces 50% cell growth inhibition) ([6]; HCT-116 (COLON), 48 hours): poor; GI50 (drug concentration that produces 50% cell growth inhibition) ([7]; H460 (NSCLC), 48 hours): poor; GI50 (drug concentration that produces 50% cell growth inhibition) ([8]; HCT-15 (COLON), 48 hours): poor; Solubility ([4]; Acetonitrile, r.t.): <1 mg/g; Solubility ([4]; Chloroform, r.t.): >335 mg/g; Solubility ([4]; Soybean Oil USP, r.t.): >2 mg/g; Solubility ([4]; Vitamin E USP/NF, 65 °C): >32 mg/g
CCc1c2c(nc3ccc(OC(=O)CC(C)CC(=O)O[C@H]4CC[C@@]5(C)C(=CC[C@H]6[C@@H]7CC[C@H]([C@H](C)CCCC(C)C)[C@@]7(C)CC[C@@H]65)C4)cc13)-c1cc3c(c(=O)n1C2)COC(=O)[C@]3(O)CC (stereo partly drawn) [Cholesterol 3-methyl glutaric-10-SN38, Cholesterol 3-methylglutaric-10-(7-ethyl-10-hydroxycamptothecin)]	–	–	–	263	245	2880	poor	–
CCc1c2c(nc3ccc(O)cc13)-c1cc3c(c(=O)n1C2)COC(=O)[C@]3(O)CC [SN38, 7-ethyl-10-hydroxycamptothecin]	21	1.4	1	–	–	–	–	GI50 [5]: 7.9 nM
CC[C@@]1(OC(=O)CCC(=O)O[C@H]2CC[C@@]3(C)C(=CC[C@H]4[C@@H]5CC[C@H]([C@H](C)CCCC(C)C)[C@@]5(C)CC[C@@H]43)C2)C(=O)OCc2c1cc1n(c2=O)Cc2cc3ccccc3nc2-1 [Cholesterol succinate-20-CPT, Cholesterol succinate-20-camptothecin]	–	–	–	> 5000	> 5000	> 5000	–	GI50 ([9]; SKOV-3 (OVARIAN), 48 hours): > 5000 nM
CC[C@@]1(O)C(=O)OCc2c1cc1n(c2=O)Cc2cc3c(CN(C)C)c(O)ccc3nc2-1 [Topotecan, topotecan]	39.8	19.9	63	–	–	–	–	GI50 [5]: 501 nM
CCc1c2c(nc3ccc(OC(=O)N4CCC(N5CCCCC5)CC4)cc13)-c1cc3c(c(=O)n1C2)COC(=O)[C@]3(O)CC [Irinotecan, irinotecan]	7900	5010	17	–	–	–	–	–
CC[C@@]1(OC(=O)CC2(CC(=O)O[C@H]3CC[C@@]4(C)C(=CC[C@H]5[C@@H]6CC[C@H]([C@H](C)CCCC(C)C)[C@@]6(C)CC[C@@H]54)C3)CCCC2)C(=O)OCc2c1cc1n(c2=O)Cc2cc3ccccc3nc2-1 [Cholesterol 3,3-tetramethylene glutaric-20-camptothecin]	–	–	–	~10000	~10000	~10000	poor	–
CC[C@@]1(OC(=O)CC(C)CC(=O)O[C@H]2CC[C@@]3(C)C(=CC[C@H]4[C@@H]5CC[C@H]([C@H](C)CCCC(C)C)[C@@]5(C)CC[C@@H]43)C2)C(=O)OCc2c1cc1n(c2=O)Cc2cc3ccccc3nc2-1 (stereo partly drawn) [Cholesterol 3-methyl glutaric-20-CPT, Cholesterol 3-Methyglutaric-20-Camptothecin]	–	–	–	–	–	–	poor	GI50 (drug concentration that produces 50% cell growth inhibition) ([6]; HCT-116 (COLON), 48 hours): poor; GI50 (drug concentration that produces 50% cell growth inhibition) ([7]; H460 (NSCLC), 48 hours): poor; GI50 (drug concentration that produces 50% cell growth inhibition) ([8]; HCT-15 (COLON), 48 hours): poor
CCc1c2c(nc3ccc(OC(=O)CCC(=O)O[C@H]4CC[C@@]5(C)C(=CC[C@H]6[C@@H]7CC[C@H]([C@H](C)CCCC(C)C)[C@@]7(C)CC[C@@H]65)C4)cc13)-c1cc3c(c(=O)n1C2)COC(=O)[C@]3(O)CC [Cholesterol succinate-10-SN38, Cholesterol succinate-10-(7-ethyl-10-hydroxycamptothecin)]	–	–	–	–	–	–	–	GI50 [6]: 339 nM; GI50 [7]: 1660 nM; GI50 [8]: 635 nM; GI50 [9]: 708 nM
CCc1c2c(nc3ccc(OC(=O)O[C@H]4CC[C@@]5(C)C(=CC[C@H]6[C@@H]7CC[C@H]([C@H](C)CCCC(C)C)[C@@]7(C)CC[C@@H]65)C4)cc13)-c1cc3c(c(=O)n1C2)COC(=O)[C@]3(O)CC [Cholesterol formate-10-SN38, Cholesterol formate-10-(7-ethyl-10-hydroxycamptothecin)]	–	–	–	631	10.5	1910	–	GI50 ([9]; SKOV-3 (OVARIAN), 48 hours): 51.4 nM; Solubility ([4]; Acetonitrile, r.t.): <1 mg/g; Solubility ([4]; Chloroform, r.t.): >40 mg/g; Solubility ([4]; Soybean Oil USP, r.t.): <1 mg/g; Solubility ([4]; Vitamin E USP/NF, 65 °C): >14 mg/g
